Test results reported in publication PMC11636681, “Pharmacokinetics and pharmacodynamics of antibacterial peptide NZX in Staphylococcus aureus mastitis mouse model” (Applied Microbiology and Biotechnology, 2024).
pEC50: −log10 of the molar value. ≈ marks a conversion by molar mass, not a printed value. Positions of bridges follow the written chain, without caps; N, C: chain ends. Residues, ends and D or L forms follow the SMILES beside them.

Key:
S. aureus ATCC 25923 [1] = assay: MIC and MBC determination (CLSI broth microdilution); type: cell-based; details: Staphylococcus aureus; for MIC: ATCC25923, 1 × 10^5 CFU/mL, 16–18 h, 37 °C; for MBC: ATCC25923, lowest concentration giving 99.9% died bacteria
Procedure: (§1) Minimal Inhibitory Concentration (MIC), Minimal Bactericidal Concentration (MBC) and Mutant Prevention Concentration (MPC).
(§2) The MIC and MBC values of NZX against the test S. aureus strain were determined according to Clinical Laboratory Standards Institute (Watts et al. [2013]). Briefly, a volume of 10 μL diluted NZX with final concentration (1.25–1280 μg/mL) and 90 μL of mid-log phase S. aureus cells (1 × 10^5 CFU/mL) were added into a 96-well plate and co-incubated for 16–18 h at 37 °C. MIC value was defined as the lowest concentration of NZX at which no visible bacterial growth was observed. In addition, the bacteria suspensions were plated on Mueller–Hinton agar (MHA) medium to count, and the lowest concentration of NZX that results in 99.9% of died bacteria was the MBC value.

S. aureus ATCC 43300 [2] = assay: as above; type: cell-based; details: Staphylococcus aureus; for MIC: ATCC43300, 1 × 10^5 CFU/mL, 16–18 h, 37 °C; for MBC: ATCC43300, lowest concentration giving 99.9% died bacteria
Procedure: as §1, §2

S. aureus E48 [3] = assay: as above; type: cell-based; details: Staphylococcus aureus; for MIC: 1 × 10^5 CFU/mL, 16–18 h, 37 °C; for MBC: lowest concentration giving 99.9% died bacteria
Procedure: as §1, §2

S. aureus ATCC 25923 [4] = assay: In vitro dose-killing curves (24 h); type: cell-based, Staphylococcus aureus; details: for pEC50: Staphylococcus aureus, ATCC25923, 50% reduction in Log10 CFU at 24 h between minimum and maximum; for Cs: concentration causing no apparent growth in Log10 CFU at 24 h vs initial inoculum
Procedure: (§3) The in vitro dose-killing curves of NZX against the test S. aureus strains were conducted as previous described (Brinch et al. [2010]), with some modification. The S. aureus cells in mid-log phage were diluted. Then, the killing curves of NZX against S. aureus strains were carried out in the 48-well plate. Specifically, a volume of 50 μL NZX (0.6–150 μM) was mixed with 450 μL of the above diluted bacterial suspension (5 × 10^5 CFU/mL), and the mixtures were incubated in the Micro Oscillator for 24 h (600 rpm, 37 °C). Subsequently, the bacteria suspensions were plated on MHA medium to count. Lincomycin and ceftiofur were set as antibiotic controls, respectively. PBS was negative control. Results were expressed as the average of three independent experiments data.

S. aureus E48 [5] = assay: In vitro dose-killing curves (24 h); type: cell-based, Staphylococcus aureus; details: for pEC50: Staphylococcus aureus, 50% reduction in Log10 CFU at 24 h between minimum and maximum; for Cs: concentration causing no apparent growth in Log10 CFU at 24 h vs initial inoculum
Procedure: as §3

S. aureus ATCC 43300 [6] = assay: Post antibiotic effect (PAE); type: cell-based, Staphylococcus aureus; details: 2 h exposure at 1 × to 8 × MIC, 1 × 10^8 CFU/mL, triplicate
Procedure: PAE was performed based on the method of Zhang et al. (Zhang et al. [2014]). S. aureus E48, S. aureus ATCC 25923 and S. aureus ATCC 43300 were cultured at 37 °C in MHB medium to the log-phase. Then, the diluted cells (1 × 10^8 CFU/mL) were exposed to NZX with final concentration of 1 × , 2 × , 4 × and 8 × MIC in the 48-well plates for 2 h at 37 °C. After incubation, NZX were removed by diluting 1:1000 with MHB medium. Viable counts were determined immediately after drug reconstruction and at 1–2 h interval for at least 10 h. PAE determination was calculated as PAE (h) = T-C, where T is the time (h) that required to increase by tenfold for the drug-treated viable count from the moment of drug reconstruction and C is the time (h) required to increase by tenfold for cell density without treatment. The experiments were conducted in triplication.

S. aureus ATCC 43300 [7] = assay: Cell membrane permeability, PI staining by flow cytometry; type: cell-based, Staphylococcus aureus
Procedure: Flow cytometry was used for the analysis of the effects of NZX on the penetration rate of the S. aureus cell membrane (Yang et al. [2019]). The S. aureus cells in mid-log phase were adjusted to 1 × 10^8 CFU/mL and the bacteria suspensions were treated with 1 × , 2 × and 4 × MIC of NZX for 2 h at 37 °C. In addition, the cell suspensions were incubated with 2 × MIC of NZX for 0 h, 0.5 h, 1 h and 2 h, respectively. After incubation, the cells were centrifuged at 4000 rpm at 4 °C for 5 min, washed twice with sterile PBS, and pellets were resuspended in 1 mL of PBS. Next, cells were stained with 50 µg/mL propidium iodide (PI) for 30 min in the dark at room temperature, and the proportion of cells with PI positive cells to the total cells were analyzed by flow-cytometry (BD, USA). Lincomycin and ceftiofur were used as positive controls and PBS as negative control. Three replicates for each treatment were conducted.

[8] = 2 × MIC, range over 0, 0.5, 1 and 2 h
[9] = 2 h, range over 1 × MIC, 2 × MIC and 4 × MIC

Structure (SMILES) | MIC (S. aureus ATCC 25923 [1]) [µM] | MBC (S. aureus ATCC 25923 [1]) [µM] | MIC (S. aureus ATCC 43300 [2]) [µM] | MBC (S. aureus ATCC 43300 [2]) [µM] | MIC (S. aureus E48 [3]) [µM] | MBC (S. aureus E48 [3]) [µM] | pEC50 (S. aureus ATCC 25923 [4]) | Cs (S. aureus ATCC 25923 [4]) [µM] | pEC50 (S. aureus E48 [5]) | Cs (S. aureus E48 [5]) [µM] | mean PAE range (S. aureus ATCC 43300 [6]) [h] | percentage of PI-positive cells (S. aureus ATCC 43300 [7]; [8]) | percentage of PI-positive cells (S. aureus ATCC 43300 [7]; [9])
CO/N=C(\C(=O)N[C@@H]1C(=O)N2C(C(=O)O)=C(CSC(=O)c3ccco3)CS[C@H]12)c1csc(N)n1 [Ceftiofur] | 1.83 (≈ 0.958 µg/mL) | 3.67 (≈ 1.92 µg/mL) | 1.83 (≈ 0.958 µg/mL) | 1.83 (≈ 0.958 µg/mL) | 1.83 (≈ 0.958 µg/mL) | 3.67 (≈ 1.92 µg/mL) | 6.15 | 0.77 | 5.93 | 1.11 | 0.82 to 1.76 | 1.82–24.20% | 15.5–15.8%
CC[C@H](C)[C@@H]1NC(=O)[C@H](CO)NC(=O)[C@H](CCCCN)NC(=O)[C@@H]2CSSC[C@@H](C(=O)N[C@@H](Cc3ccc(O)cc3)C(=O)O)NC(=O)[C@H](CCCCN)NC(=O)[C@@H]3CSSC[C@H](NC(=O)[C@H](CCC(N)=O)NC(=O)[C@H]([C@@H](C)CC)NC(=O)[C@H](CC(=O)O)NC(=O)[C@H](CC(=O)O)NC(=O)[C@H](CCC(=O)O)NC(=O)[C@H](CO)NC(=O)[C@H](Cc4c[nH]c5ccccc45)NC(=O)[C@@H]4CCCN4C(=O)CNC(=O)[C@H](CC(N)=O)NC(=O)[C@@H](NC(=O)CNC(=O)[C@H](Cc4ccccc4)NC(=O)CN)CSSC[C@H](NC(=O)[C@H](Cc4ccc(O)cc4)NC(=O)CNC(=O)CNC(=O)[C@H](CCCCN)NC(=O)[C@H](Cc4ccc(O)cc4)NC(=O)CNC(=O)[C@H](CCCCN)NC1=O)C(=O)N[C@@H](C)C(=O)N[C@@H](CCCNC(=N)N)C(=O)NCC(=O)NCC(=O)N[C@@H](Cc1ccccc1)C(=O)N[C@@H](C(C)C)C(=O)N3)C(=O)N[C@@H](Cc1c[nH]cn1)C(=O)N[C@@H](CC(N)=O)C(=O)N[C@@H](Cc1c[nH]cn1)C(=O)N2 [NZX] (H-GFGCNGPWSEDDIQCHNHCKSIKGYKGGYCARGGFVCKCY-OH; disulfide 4-30, 15-37, 19-39; N-terminus and C-terminus assumed) |  |  |  |  |  |  |  |  |  |  | 0.00 to 8.48 | 1.91 to 75.17% | 57.1–75.1%
CCC[C@@H]1C[C@@H](C(=O)N[C@@H]([C@H]2O[C@H](SC)[C@H](O)[C@@H](O)[C@H]2O)[C@@H](C)O)N(C)C1 [Lincomycin] | 2.17 (≈ 0.882 µg/mL) | 4.34 (≈ 1.76 µg/mL) | > 139 | > 139 | 2.17 (≈ 0.882 µg/mL) | 4.34 (≈ 1.76 µg/mL) | 5.64 | 2.57 | 5.83 | 1.38 |  |  | 
